As usually defined, the IC50 is the concentration that inhibits the measured activity by half.

For this test, the target named is human PDE10A (Homo sapiens (Human), UniProt Q9Y233). The experiment in a line: human PDE10A full length Scintillation Proximity Assay (SPA). In kind it is biochemical. Particulars: 50 nM cGMP and 50 nM [3H]-cGMP, 20 minutes at room temperature, read-out: PDE10A inhibition IC50. The protocol: The following test was carried out in order to determine the activity of the compounds of the present invention. PDE10 activity of the compounds of the present invention was determined using a Scintillation Proximity Assay (SPA)-based method similar to the one previously described (Fawcett, L. et al., Proc Natl Acad Sci USA (2000) 97(7):3702-3707).
Chain of human PDE10A (Q9Y233 other isoform, or with tags, fused parts or gaps): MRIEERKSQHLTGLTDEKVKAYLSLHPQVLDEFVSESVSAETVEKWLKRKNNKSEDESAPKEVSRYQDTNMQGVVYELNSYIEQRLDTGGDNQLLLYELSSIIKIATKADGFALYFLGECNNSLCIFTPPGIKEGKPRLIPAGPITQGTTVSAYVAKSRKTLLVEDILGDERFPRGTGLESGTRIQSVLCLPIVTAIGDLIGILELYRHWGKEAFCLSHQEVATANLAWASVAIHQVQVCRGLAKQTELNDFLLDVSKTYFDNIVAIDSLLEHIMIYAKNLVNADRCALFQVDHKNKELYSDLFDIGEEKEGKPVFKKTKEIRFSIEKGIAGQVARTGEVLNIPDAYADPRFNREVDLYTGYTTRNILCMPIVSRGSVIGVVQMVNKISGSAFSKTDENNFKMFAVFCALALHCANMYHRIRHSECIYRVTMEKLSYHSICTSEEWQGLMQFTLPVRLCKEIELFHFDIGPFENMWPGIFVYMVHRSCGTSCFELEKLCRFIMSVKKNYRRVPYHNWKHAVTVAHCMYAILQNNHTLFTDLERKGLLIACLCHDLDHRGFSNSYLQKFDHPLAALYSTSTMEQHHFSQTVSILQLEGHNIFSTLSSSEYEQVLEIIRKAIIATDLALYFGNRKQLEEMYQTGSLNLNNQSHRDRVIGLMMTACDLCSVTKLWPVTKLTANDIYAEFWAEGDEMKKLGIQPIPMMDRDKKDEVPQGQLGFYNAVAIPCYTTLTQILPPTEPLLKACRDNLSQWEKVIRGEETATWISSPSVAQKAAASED
The human PDE10A full length assay was performed in 96-well micro titer plates. The reaction mixture of 50 μl contained 20 mM HEPES pH=7.5/10 mM MgCl2/0.05 mg/ml BSA (Sigma cat. # A-7906), 50 nM cGMP (Sigma, cat. # G6129) and 50 nM [^3H]-cGMP (GE Healthcare, cat. # TRK392 S.A. 13.2Ci/mmol), 3.75 ng/well PDE10A enzyme (Enzo Life Science, Lausen, Switzerland cat # SE-534) with or without a specific test compound. A range of concentrations of the potential inhibitor was used to generate data for calculating the concentration of inhibitor resulting in 50% of the effect (e.g. IC50, the concentration of the competitor inhibiting PDE10A activity by 50%). Non-specific activity was tested without the enzyme. The reaction was initiated by the addition of the substrate solution (cGMP and [^3H]-cGMP) and allowed to progress for 20 minutes at room temperature. The reaction was terminated by adding 25 μA of YSi-SPA scintillation beads (GE Healthcare, cat. # RPNQ0150) in 18 mM zinc sulphate solution (stop reagent). After 1 h under shaking, the plate was centrifuged one minute at 170 g to allow beads to settle. Afterwards, radioactive counts were measured on a Perkin Elmer TopCount Scintillation plate reader.
Regarding `O=C(Nc1cc(-c2ccccn2)nn1CC1CCCC1)c1nc(C2CC2)ccc1Nc1cncnc1` [Example 31, 6-Cyclopropyl-3-(pyrimidin-5-ylamino)-pyridine-2-carboxylic acid (2-cyclopentylmethyl-5-pyridin-2-yl-2H-pyrazol-3-yl)-amide], the IC50 was found to be 1 nM.

For `O=C(Nc1cc(-c2ccccn2)nn1CC1CCCCC1)c1nc(C2CC2)ccc1Nc1cncnc1` [Example 32, 6-Cyclopropyl-3-(pyrimidin-5-ylamino)-pyridine-2-carboxylic acid (2-cyclohexylmethyl-5-pyridin-2-yl-2H-pyrazol-3-yl)-amide], the IC50 was determined as 1 nM. Take `N#CCCn1nc(-c2ccccn2)cc1NC(=O)c1nc(C2CC2)ccc1Nc1cncnc1` [Example 33, 6-Cyclopropyl-3-(pyrimidin-5-ylamino)-pyridine-2-carboxylic acid [2-(2-cyano-ethyl)-5-pyridin-2-yl-2H-pyrazol-3-yl]-amide]: the IC50 came out at 170 nM.

Regarding `CCc1ccc(Nc2cncnc2)c(C(=O)Nc2cc(-c3ccccn3)nn2CCO)n1` [Example 34, 6-Ethyl-3-(pyrimidin-5-ylamino)-pyridine-2-carboxylic acid [2-(2-hydroxy-ethyl)-5-pyridin-2-yl-2H-pyrazol-3-yl]-amide], the IC50 turned out to be 1 nM. For the compound `Cc1cnc(Nc2cncnc2)c(C(=O)Nc2cc(-c3ccccn3)nn2C)n1` [Example 35, 6-Methyl-3-(pyrimidin-5-ylamino)-pyrazine-2-carboxylic acid (2-methyl-5-pyridin-2-yl-2H-pyrazol-3-yl)-amide], the IC50 is 21 nM.

Take `Cc1cnc(Nc2cncnc2)c(C(=O)Nc2cc(-c3ccccn3)nn2CCO)n1` [Example 36, 6-Methyl-3-(pyrimidin-5-ylamino)-pyrazine-2-carboxylic acid [2-(2-hydroxy-ethyl)-5-pyridin-2-yl-2H-pyrazol-3-yl]-amide]: the IC50 amounted to 4 nM.

With `Cn1cncc1Cn1nc(-c2ccccn2)cc1NC(=O)c1nc(C2CC2)ccc1Nc1cncnc1` [Example 37, 6-Cyclopropyl-3-(pyrimidin-5-ylamino)-pyridine-2-carboxylic acid [2-(3-methyl-3H-imidazol-4-ylmethyl)-5-pyridin-2-yl-2H-pyrazol-3-yl]-amide], the IC50 amounted to 2 nM. For `COCCn1nc(-c2ccccn2)cc1NC(=O)c1nc(C2CC2)ccc1Nc1cncnc1` [Example 38, 6-Cyclopropyl-3-(pyrimidin-5-ylamino)-pyridine-2-carboxylic acid [2-(2-methoxy-ethyl)-5-pyridin-2-yl-2H-pyrazol-3-yl]-amide], the IC50 is under 1 nM. The value for `Cn1nc(-c2ccc(Cl)cn2)cc1NC(=O)c1nc(C2CC2)ccc1Nc1cncnc1` [Example 39, 6-Cyclopropyl-3-(pyrimidin-5-ylamino)-pyridine-2-carboxylic acid [5-(5-chloro-pyridin-2-yl)-2-methyl-2H-pyrazol-3-yl]-amide] was 3 nM; that for `Cn1nc(-c2ccc3ccccc3n2)cc1NC(=O)c1nc(C2CC2)ccc1Nc1cncnc1` [Example 40, 6-Cyclopropyl-3-(pyrimidin-5-ylamino)-pyridine-2-carboxylic acid (2-methyl-5-quinolin-2-yl-2H-pyrazol-3-yl)-amide] was under 1 nM. Consider `Cn1nc(-c2cccc(Cl)n2)cc1NC(=O)c1nc(C2CC2)ccc1Nc1cncnc1` [Example 41, 6-Cyclopropyl-3-(pyrimidin-5-ylamino)-pyridine-2-carboxylic acid [5-(6-chloro-pyridin-2-yl)-2-methyl-2H-pyrazol-3-yl]-amide], for which the IC50 stood at 3 nM. The value for `CN(C)CCn1nc(NC(=O)c2nc(C3CC3)ccc2Nc2cncnc2)cc1-c1ccccn1` [Example 42, 6-Cyclopropyl-3-(pyrimidin-5-ylamino)-pyridine-2-carboxylic acid [1-(2-dimethylamino-ethyl)-5-pyridin-2-yl-1H-pyrazol-3-yl]-amide] was 24 nM; that for `CN1CCC(n2nc(-c3ccccn3)cc2NC(=O)c2nc(C3CC3)ccc2Nc2cncnc2)CC1` [Example 43, 6-Cyclopropyl-3-(pyrimidin-5-ylamino)-pyridine-2-carboxylic acid [2-(1-methyl-piperidin-4-yl)-5-pyridin-2-yl-2H-pyrazol-3-yl]-amide] was 4 nM.

Regarding `COc1ccc(-c2nnc(NC(=O)c3nc(C4CC4)ccc3Nc3cncnc3)s2)cc1` [Example 44, 6-Cyclopropyl-3-(pyrimidin-5-ylamino)-pyridine-2-carboxylic acid [5-(4-methoxy-phenyl)-[1,3,4]thiadiazol-2-yl]-amide], the IC50 stood at 1880 nM. `O=C(Nc1nnc(-c2ccc(F)cc2)s1)c1nc(C2CC2)ccc1Nc1cncnc1` [Example 45, 6-Cyclopropyl-3-(pyrimidin-5-ylamino)-pyridine-2-carboxylic acid [5-(4-fluoro-phenyl)-[1,3,4]thiadiazol-2-yl]-amide]: the IC50 was 6380 nM. As for `O=C(Nc1cc(-c2ccccc2)no1)c1nc(C2CC2)ccc1Nc1cncnc1` [Example 46, 6-Cyclopropyl-3-(pyrimidin-5-ylamino)-pyridine-2-carboxylic acid (3-phenyl-isoxazol-5-yl)-amide], the IC50 was found to be 612 nM. On to `O=C(Nc1cc(-c2ccccc2)on1)c1nc(C2CC2)ccc1Nc1cncnc1` [Example 47, 6-Cyclopropyl-3-(pyrimidin-5-ylamino)-pyridine-2-carboxylic acid (5-phenyl-isoxazol-3-yl)-amide], for which the IC50 worked out at 1450 nM. For `O=C(Nc1nnc(-c2ccccc2)s1)c1nc(C2CC2)ccc1Nc1cncnc1` [Example 48, 6-Cyclopropyl-3-(pyrimidin-5-ylamino)-pyridine-2-carboxylic acid (5-phenyl-[1,3,4]thiadiazol-2-yl)-amide], the IC50 was found to be 435 nM.

Regarding `O=C(Nc1nnc(-c2cnccn2)s1)c1nc(C2CC2)ccc1Nc1cncnc1` [Example 49, 6-Cyclopropyl-3-(pyrimidin-5-ylamino)-pyridine-2-carboxylic acid (5-pyrazin-2-yl-[1,3,4]thiadiazol-2-yl)-amide], the IC50 is 744 nM. Consider `O=C(Nc1ccc(-c2ccccn2)s1)c1nc(C2CC2)ccc1Nc1cncnc1` [Example 50, 6-Cyclopropyl-3-(pyrimidin-5-ylamino)-pyridine-2-carboxylic acid (5-pyridin-2-yl-thiophen-2-yl)-amide], for which the IC50 came out at 1 nM. `O=C(Nc1cc(-c2ccccn2)no1)c1nc(C2CC2)ccc1Nc1cncnc1` [Example 51, 6-Cyclopropyl-3-(pyrimidin-5-ylamino)-pyridine-2-carboxylic acid (3-pyridin-2-yl-isoxazol-5-yl)-amide]: the IC50 came out at 4 nM.

For the compound `O=C(Nc1cn(-c2ccccn2)cn1)c1nc(C2CC2)ccc1Nc1cncnc1` [Example 52, 6-Cyclopropyl-3-(pyrimidin-5-ylamino)-pyridine-2-carboxylic acid (1-pyridin-2-yl-1H-imidazol-4-yl)-amide], the IC50 was 33 nM. As to `CC(C)c1ncc(Nc2cncnc2)c(C(=O)Nc2cc(-c3ccccn3)nn2C)n1` [Example 53, 2-Isopropyl-5-(pyrimidin-5-ylamino)-pyrimidine-4-carboxylic acid (2-methyl-5-pyridin-2-yl-2H-pyrazol-3-yl)-amide], the IC50 amounted to 20 nM. Take `Cn1nc(-c2ccccn2)cc1NC(=O)c1nc(C2CC2)ncc1Nc1cncnc1` [Example 54, 2-Cyclopropyl-5-(pyrimidin-5-ylamino)-pyrimidine-4-carboxylic acid (2-methyl-5-pyridin-2-yl-2H-pyrazol-3-yl)-amide]: the IC50 was found to be 87 nM. Consider `Cn1nc(-c2ccccn2)cc1NC(=O)c1nc(C(C)(C)C)ncc1Nc1cncnc1` [Example 55, 2-tert-Butyl-5-(pyrimidin-5-ylamino)-pyrimidine-4-carboxylic acid (2-methyl-5-pyridin-2-yl-2H-pyrazol-3-yl)-amide], for which the IC50 worked out at 4 nM.

Regarding `O=C(Nc1cc(-c2ccc(Cl)cc2)no1)c1nc(C2CC2)ccc1Nc1cncnc1` [Example 56, 6-Cyclopropyl-3-(pyrimidin-5-ylamino)-pyridine-2-carboxylic acid [3-(4-chloro-phenyl)-isoxazol-5-yl]-amide], the IC50 was found to be 1450 nM. Then `O=C(Nc1cc(-c2ccc(Br)cc2)no1)c1nc(C2CC2)ccc1Nc1cncnc1` [Example 57, 6-Cyclopropyl-3-(pyrimidin-5-ylamino)-pyridine-2-carboxylic acid [3-(4-bromo-phenyl)-isoxazol-5-yl]-amide], with 781 nM; and `O=C(Nc1cc(-c2ccc(F)cc2)no1)c1nc(C2CC2)ccc1Nc1cncnc1` [Example 58, 6-Cyclopropyl-3-(pyrimidin-5-ylamino)-pyridine-2-carboxylic acid [3-(4-fluoro-phenyl)-isoxazol-5-yl]-amide], with 2450 nM. Turning to `COCc1ccc(Nc2cncnc2)c(C(=O)Nc2cc(-c3ccccn3)nn2C)n1` [Example 59, 6-Methoxymethyl-3-(pyrimidin-5-ylamino)-pyridine-2-carboxylic acid (2-methyl-5-pyridin-2-yl-2H-pyrazol-3-yl)-amide], the IC50 is 7 nM.

(Values after US8470820B2, “Nitrogen-containing heteroaryl derivatives” (Hoffman-La Roche Inc., priority 2010, dated 2013).)
